Molecular target: T1, GST-Met 248 PDE 4a (Homo sapiens, UniProt P27815)
T1 construct: human recombinant phosphodiesterase IVa (met-248); made in house; host or cells: baculovirus/Sf-9 insect cells
Assay: SPA based PDE Activity Assay (hydrolysis of cAMP to AMP)
Type: biochemical
Conditions: 100 nM cAMP; purified GST fusion protein of human recombinant phosphodiesterase IVa (met-248), baculovirus/Sf-9; 30° C., 10 min
Procedure: SPA based PDE Activity Assay Protocol
Compounds which inhibit the hydrolysis of cAMP to AMP by the type-IV cAMP-specific phosphodiesterases were screened in 96-well plate format as follows:
In a 96 well-plate at 30° C. was added the test compound (dissolved in 2 μl DMSO), […] of substrate buffer containing [2,8-^3 H] adenosine 3',5'-cyclic phosphate (cAMP, 100 nM to 50 μM), 10 mM MgCl2, 1 mM EDTA, 50 mM Tris, pH 7.5. The reaction was initiated by the addition of […] of human recombinant PDE-IV (the amount was controlled so that ~10% product was formed in 10 min.). The reaction was stopped after 10 min. by the addition of 1 mg of PDE-SPA beads (Amersham). The product AMP generated was quantified on a Microbeta 96-well plate counter. The signal in the absence of enzyme was defined as the background. 100% activity was defined as the signal detected in the presence of enzyme and DMSO with the background subtracted. Percentage of inhibition was calculated accordingly. IC50 value was approximated with a non-linear regression fit using the standard 4-parameter/multiple binding sites equation from a ten point titration.
IC50 values shown in Table 7 were determined with 100 nM cAMP using the purified GST fusion protein of the human recombinant phosphodiesterase IVa (met-248) produced from a baculovirus/Sf-9 expression system.

T1 sequence (P27815 248-886 limits assumed): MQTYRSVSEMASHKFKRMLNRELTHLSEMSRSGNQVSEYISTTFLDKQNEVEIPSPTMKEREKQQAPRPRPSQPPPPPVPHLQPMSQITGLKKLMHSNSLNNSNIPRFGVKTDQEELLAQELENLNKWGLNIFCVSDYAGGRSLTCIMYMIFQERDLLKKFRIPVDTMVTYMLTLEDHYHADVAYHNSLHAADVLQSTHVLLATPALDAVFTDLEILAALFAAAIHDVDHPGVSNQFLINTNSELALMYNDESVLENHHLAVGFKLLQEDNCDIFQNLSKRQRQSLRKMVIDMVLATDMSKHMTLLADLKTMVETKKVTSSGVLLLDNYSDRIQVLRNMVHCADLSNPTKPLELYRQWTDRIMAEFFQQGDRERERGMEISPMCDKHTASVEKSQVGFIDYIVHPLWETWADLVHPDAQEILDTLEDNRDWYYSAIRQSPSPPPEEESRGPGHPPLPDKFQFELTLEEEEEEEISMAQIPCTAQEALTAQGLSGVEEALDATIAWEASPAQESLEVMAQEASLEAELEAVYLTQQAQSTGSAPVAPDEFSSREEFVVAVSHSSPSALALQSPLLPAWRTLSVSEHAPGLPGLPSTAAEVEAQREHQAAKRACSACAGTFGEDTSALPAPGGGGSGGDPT

IC50 [nM]	SMILES
21.2	O=[N+]([O-])c1ccc(S(=O)(=O)c2ccc(C(Cc3cc[n+]([O-])cc3)c3ccc(OC(F)F)c(OC(F)F)c3)cn2)cc1 (centres unmarked) [Example 4, 4-{2-[3,4-Bis(difluoromethoxy)phenyl]-2-[6-(4-nitrobenzenesulfonyl)3-pyridyl]ethyl}pyridine-N-oxide]
5.45	NS(=O)(=O)c1cccc(Sc2ccc(C(Cc3ccncc3)c3ccc(OC(F)F)c(OC(F)F)c3)cn2)c1 (centres unmarked) [Example 1, 4-{2-[3,4-Bis(difluoromethoxy)phenyl]-2-{6-[3-(aminosulfonyl)benzenethiol]3-pyridyl}ethyl}pyridine]

From patent US6316472A, “Heterosubstituted pyridine derivatives as PDE 4 inhibitors” (Merck Frosst Canada & Co., priority 2000, dated 2001)
